# Measured values published in PubChem BioAssay (NCI).
#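 In this assay, cells in 96-well plates receive the compound at five concentrations for 48 hours. Endpoints are linearly interpolated between the surrounding concentrations. The concentration for full growth arrest is given as TGI.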
# Experiments:
# Assay in all cases: NCI-60 cell line screen, 48 h
# T-47D breast = test system: T-47D breast
# SF-295 CNS = test system: SF-295 CNS
# U251 CNS = test system: U251 CNS
# SK-OV-3 ovarian = test system: SK-OV-3 ovarian
# HT29 colon = test system: HT29 colon
# HCC-2998 colon = test system: HCC-2998 colon
# OVCAR-3 ovarian = test system: OVCAR-3 ovarian
# TK-10 renal = test system: TK-10 renal
# SNB-19 CNS = test system: SNB-19 CNS
# SN12C renal = test system: SN12C renal
# UACC-257 melanoma = test system: UACC-257 melanoma
# PC-3 prostate = test system: PC-3 prostate
# 786-0 renal = test system: 786-0 renal
# EKVX NSCLC = test system: EKVX NSCLC
# NCI-H460 lung = test system: NCI-H460 lung
# MDA-MB-435 = test system: MDA-MB-435
# SK-MEL-2 melanoma = test system: SK-MEL-2 melanoma
# K-562 leukemia = test system: K-562 leukemia
# NCI-H226 lung = test system: NCI-H226 lung
# MDA-N = test system: MDA-N
# COLO 205 colon = test system: COLO 205 colon
# RPMI-8226 leukemia = test system: RPMI-8226 leukemia
# MCF7 breast = test system: MCF7 breast
# M14 melanoma = test system: M14 melanoma
# MDA-MB-231 breast = test system: MDA-MB-231 breast
# OVCAR-8 ovarian = test system: OVCAR-8 ovarian
# HOP-92 NSCLC = test system: HOP-92 NSCLC
# KM12 colon = test system: KM12 colon
# SF-539 CNS = test system: SF-539 CNS
# A498 renal = test system: A498 renal
# A549 NSCLC = test system: A549 NSCLC
# SW-620 colon = test system: SW-620 colon
# DU-145 prostate = test system: DU-145 prostate
# BT-549 breast = test system: BT-549 breast
# IGROV1 ovarian = test system: IGROV1 ovarian
# OVCAR-5 ovarian = test system: OVCAR-5 ovarian
# ACHN renal = test system: ACHN renal
# SK-MEL-5 melanoma = test system: SK-MEL-5 melanoma
# SK-MEL-28 melanoma = test system: SK-MEL-28 melanoma
# LOX IMVI melanoma = test system: LOX IMVI melanoma
# HCT-15 colon = test system: HCT-15 colon
# NCI/ADR-RES ovarian = test system: NCI/ADR-RES ovarian
# OVCAR-4 ovarian = test system: OVCAR-4 ovarian
# UO-31 renal = test system: UO-31 renal
# NCI-H23 lung = test system: NCI-H23 lung
# CAKI-1 renal = test system: CAKI-1 renal
# HCT-116 colon = test system: HCT-116 colon
# UACC-62 melanoma = test system: UACC-62 melanoma
# HOP-62 NSCLC = test system: HOP-62 NSCLC
# SNB-75 CNS = test system: SNB-75 CNS
# HS 578T breast = test system: HS 578T breast
# HL-60(TB) leukemia = test system: HL-60(TB) leukemia
# MALME-3M melanoma = test system: MALME-3M melanoma
# NCI-H522 lung = test system: NCI-H522 lung
# CCRF-CEM leukemia = test system: CCRF-CEM leukemia
# SF-268 CNS = test system: SF-268 CNS
# RXF 393 renal = test system: RXF 393 renal
# MOLT-4 leukemia = test system: MOLT-4 leukemia
structure (smiles),measurement,setting,value
Cc1ccc(Cc2nn(C)c(=O)n2N)cc1,TGI,T-47D breast,> 100 µM
same,TGI,SF-295 CNS,> 100 µM
same,TGI,U251 CNS,> 100 µM
same,TGI,SK-OV-3 ovarian,> 100 µM
same,TGI,HT29 colon,> 100 µM
same,TGI,HCC-2998 colon,> 100 µM
same,TGI,OVCAR-3 ovarian,> 100 µM
same,TGI,TK-10 renal,> 100 µM
same,TGI,SNB-19 CNS,> 100 µM
same,TGI,SN12C renal,> 100 µM
same,TGI,UACC-257 melanoma,> 100 µM
same,TGI,PC-3 prostate,> 100 µM
same,TGI,786-0 renal,> 100 µM
same,TGI,EKVX NSCLC,> 100 µM
same,TGI,NCI-H460 lung,> 100 µM
same,TGI,MDA-MB-435,> 100 µM
same,TGI,SK-MEL-2 melanoma,> 100 µM
same,TGI,K-562 leukemia,> 100 µM
same,TGI,NCI-H226 lung,> 100 µM
same,TGI,MDA-N,> 100 µM
same,TGI,COLO 205 colon,> 100 µM
same,TGI,RPMI-8226 leukemia,> 100 µM
same,TGI,MCF7 breast,> 100 µM
same,TGI,M14 melanoma,> 100 µM
same,TGI,MDA-MB-231 breast,> 100 µM
same,TGI,OVCAR-8 ovarian,> 100 µM
same,TGI,HOP-92 NSCLC,> 100 µM
same,TGI,KM12 colon,> 100 µM
same,TGI,SF-539 CNS,> 100 µM
same,TGI,A498 renal,> 100 µM
same,TGI,A549 NSCLC,> 100 µM
same,TGI,SW-620 colon,> 100 µM
same,TGI,DU-145 prostate,> 100 µM
same,TGI,BT-549 breast,> 100 µM
same,TGI,IGROV1 ovarian,> 100 µM
same,TGI,OVCAR-5 ovarian,> 100 µM
same,TGI,ACHN renal,> 100 µM
same,TGI,SK-MEL-5 melanoma,> 100 µM
same,TGI,SK-MEL-28 melanoma,> 100 µM
same,TGI,LOX IMVI melanoma,> 100 µM
same,TGI,HCT-15 colon,> 100 µM
same,TGI,NCI/ADR-RES ovarian,> 100 µM
same,TGI,OVCAR-4 ovarian,> 100 µM
same,TGI,UO-31 renal,> 100 µM
same,TGI,NCI-H23 lung,> 100 µM
same,TGI,CAKI-1 renal,> 100 µM
same,TGI,HCT-116 colon,> 100 µM
same,TGI,UACC-62 melanoma,> 100 µM
Oc1ccc2ccccc2c1N=Nc1cc(Cl)ccc1Cl,TGI,HOP-62 NSCLC,20.8 µM
same,TGI,SF-295 CNS,28.6 µM
same,TGI,U251 CNS,22 µM
same,TGI,SK-OV-3 ovarian,41.2 µM
same,TGI,HT29 colon,> 50 µM
same,TGI,OVCAR-3 ovarian,> 50 µM
same,TGI,TK-10 renal,35.9 µM
same,TGI,SNB-19 CNS,> 50 µM
same,TGI,SN12C renal,> 50 µM
same,TGI,UACC-257 melanoma,> 50 µM
same,TGI,PC-3 prostate,> 50 µM
same,TGI,786-0 renal,17 µM
same,TGI,EKVX NSCLC,20.6 µM
same,TGI,MDA-MB-435,> 50 µM
same,TGI,SK-MEL-2 melanoma,> 50 µM
same,TGI,K-562 leukemia,> 50 µM
same,TGI,SNB-75 CNS,23.9 µM
same,TGI,HS 578T breast,21.4 µM
same,TGI,NCI-H226 lung,> 50 µM
same,TGI,MDA-N,> 50 µM
same,TGI,COLO 205 colon,> 50 µM
same,TGI,RPMI-8226 leukemia,> 50 µM
same,TGI,M14 melanoma,> 50 µM
same,TGI,HL-60(TB) leukemia,> 50 µM
same,TGI,MALME-3M melanoma,> 50 µM
same,TGI,MDA-MB-231 breast,27.9 µM
same,TGI,OVCAR-8 ovarian,30.2 µM
same,TGI,HOP-92 NSCLC,> 50 µM
same,TGI,NCI-H522 lung,> 50 µM
same,TGI,CCRF-CEM leukemia,> 50 µM
same,TGI,SF-268 CNS,> 50 µM
same,TGI,RXF 393 renal,> 50 µM
same,TGI,KM12 colon,> 50 µM
same,TGI,A549 NSCLC,> 50 µM
same,TGI,SW-620 colon,> 50 µM
same,TGI,MOLT-4 leukemia,> 50 µM
same,TGI,BT-549 breast,> 50 µM
same,TGI,IGROV1 ovarian,18.1 µM
same,TGI,OVCAR-5 ovarian,> 50 µM
same,TGI,ACHN renal,24.7 µM
same,TGI,SK-MEL-5 melanoma,> 50 µM
same,TGI,SK-MEL-28 melanoma,> 50 µM
same,TGI,HCT-15 colon,> 50 µM
same,TGI,NCI/ADR-RES ovarian,> 50 µM
same,TGI,OVCAR-4 ovarian,28.8 µM
same,TGI,UO-31 renal,> 50 µM
same,TGI,NCI-H23 lung,> 50 µM
same,TGI,CAKI-1 renal,> 50 µM
same,TGI,HCT-116 colon,48.1 µM
same,TGI,UACC-62 melanoma,> 50 µM
